Test results: ChEMBL document CHEMBL5030542, “Pillar[5]arene-Based Polycationic Glyco[2]rotaxanes Designed as Pseudomonas aeruginosa Antibiofilm Agents” (J Med Chem, 2021)
Active and inactive are the calls of the source. The rule behind the calls is not given here.

Key:
[1] = test system: Pseudomonas aeruginosa; assay: Binding affinity to recombinant Pseudomonas aeruginosa LecA expressed in Escherichia coli assessed as change in enthalpy by isothermal titration calorimetry
[2] = Binding affinity to recombinant Pseudomonas aeruginosa LecA expressed in Escherichia coli assessed as dissociation constant by isothermal titration calorimetry
[3] = test system: Pseudomonas aeruginosa; assay: Binding affinity to recombinant Pseudomonas aeruginosa LecA expressed in Escherichia coli assessed as change in entropy by isothermal titration calorimetry
[4] = test system: Pseudomonas aeruginosa; assay: Binding affinity to recombinant Pseudomonas aeruginosa LecA expressed in Escherichia coli assessed as gibbs free energy change by isothermal titration calorimetry
[5] = molecular target: Fucose-binding lectin PA-IIL (Pseudomonas aeruginosa (strain ATCC 15692 / DSM 22644 / CIP 104116 / JCM14847 / LMG 12228 / 1C / PRS 101 / PAO1)) (UniProt Q9HYN5); assay: Binding affinity to recombinant Pseudomonas aeruginosa LecB expressed in Escherichia coli assessed as change in enthalpy by isothermal titration calorimetry
Sequence of Fucose-binding lectin PA-IIL (Pseudomonas aeruginosa (strain ATCC 15692 / DSM 22644 / CIP 104116 / JCM14847 / LMG 12228 / 1C / PRS 101 / PAO1)) (Q9HYN5 as listed by the source): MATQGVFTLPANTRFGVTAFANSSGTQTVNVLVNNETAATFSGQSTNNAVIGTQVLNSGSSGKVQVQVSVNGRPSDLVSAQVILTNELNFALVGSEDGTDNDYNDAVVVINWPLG

[6] = test system: Pseudomonas aeruginosa; assay: Anti-bioflim activity against Pseudomonas aeruginosa PAO1 assessed as inhibition of bioflim formation incubated for 24 hrs by crystal violet staining based assay; type: functional
[7] = molecular target: Fucose-binding lectin PA-IIL (Pseudomonas aeruginosa (strain ATCC 15692 / DSM 22644 / CIP 104116 / JCM14847 / LMG 12228 / 1C / PRS 101 / PAO1)) (UniProt Q9HYN5); assay: Binding affinity to recombinant Pseudomonas aeruginosa LecB expressed in Escherichia coli assessed as gibbs free energy change by isothermal titration calorimetry
[8] = molecular target: Fucose-binding lectin PA-IIL (Pseudomonas aeruginosa (strain ATCC 15692 / DSM 22644 / CIP 104116 / JCM14847 / LMG 12228 / 1C / PRS 101 / PAO1)) (UniProt Q9HYN5); assay: Binding affinity to recombinant Pseudomonas aeruginosa LecB expressed in Escherichia coli assessed as change in entropy by isothermal titration calorimetry
[9] = molecular target: Fucose-binding lectin PA-IIL (Pseudomonas aeruginosa (strain ATCC 15692 / DSM 22644 / CIP 104116 / JCM14847 / LMG 12228 / 1C / PRS 101 / PAO1), UniProt Q9HYN5); assay: Binding affinity to recombinant Pseudomonas aeruginosa lecB expressed in Escherichia coli assessed as dissociation constant by isothermal titration calorimetry
Sequence of Fucose-binding lectin PA-IIL (Q9HYN5 whole entry): as the sequence (Q9HYN5 as listed by the source) above

[10] = test system: Pseudomonas aeruginosa; assay: Anti-bioflim activity against Pseudomonas aeruginosa PAO1 assessed as inhibition of bioflim formation measured at MBIC50 concentration incubated for 24 hrs by crystal violet staining based assay; type: functional
[11] = test system: Pseudomonas aeruginosa; assay: Antibacterial activity against Pseudomonas aeruginosa PAO1 assessed as inhibition of bacterial growth for complete inhibition of bacterial growth incubated for 24 hrs; type: functional

Structure (SMILES) | deltaH [1] [kcal/mol] | Kd [2] [nM] | deltaS [3] [kcal/mol] | deltaG [4] [kcal/mol] | deltaH [5] [kcal/mol] | MBIC50 [6] [µM] | deltaG [7] [kcal/mol] | -TΔS [3] [kcal/mol] | deltaS [8] [kcal/mol] | Kd [9] [nM] | MBIC50 [10] | MIC [11] [µM] | inhibition (INH) [10] [%]
OC[C@H]1O[C@@H](OCc2cn(CCOc3cc4c(OCCn5cc(CO[C@@H]6O[C@H](CO)[C@H](O)[C@H](O)[C@H]6O)nn5)cc3Cc3cc(OCCn5cc(CO[C@@H]6O[C@H](CO)[C@H](O)[C@H](O)[C@H]6O)nn5)c(cc3OCCn3cc(CO[C@@H]5O[C@H](CO)[C@H](O)[C@H](O)[C@H]5O)nn3)Cc3cc(OCCn5cc(CO[C@@H]6O[C@H](CO)[C@H](O)[C@H](O)[C@H]6O)nn5)c(cc3OCCn3cc(CO[C@@H]5O[C@H](CO)[C@H](O)[C@H](O)[C@H]5O)nn3)Cc3cc(OCCn5cc(CO[C@@H]6O[C@H](CO)[C@H](O)[C@H](O)[C@H]6O)nn5)c(cc3OCCn3cc(CO[C@@H]5O[C@H](CO)[C@H](O)[C@H](O)[C@H]5O)nn3)Cc3cc(OCCn5cc(CO[C@@H]6O[C@H](CO)[C@H](O)[C@H](O)[C@H]6O)nn5)c(cc3OCCn3cc(CO[C@@H]5O[C@H](CO)[C@H](O)[C@H](O)[C@H]5O)nn3)C4)nn2)[C@H](O)[C@@H](O)[C@H]1O | -37.5 | 145 | 28.2 | -9.35 |  |  |  |  |  |  |  |  | 
CO[C@@H]1O[C@H](CO)[C@H](O)[C@H](O)[C@H]1O | -4.54 | 55700 |  | -5.81 |  |  |  |  |  |  |  |  | 
C[C@@H]1O[C@@H](OCCOCCn2cc(COCC(COCc3cn(CCOCCO[C@@H]4O[C@@H](C)[C@@H](O)[C@@H](O)[C@@H]4O)nn3)N=[N+]=[N-])nn2)[C@@H](O)[C@H](O)[C@@H]1O.OC[C@H]1O[C@@H](OCc2cn(CCCOc3cc4c(OCCn5cc(CO[C@@H]6O[C@H](CO)[C@H](O)[C@H](O)[C@H]6O)nn5)cc3Cc3cc(OCCn5cc(CO[C@@H]6O[C@H](CO)[C@H](O)[C@H](O)[C@H]6O)nn5)c(cc3OCCn3cc(CO[C@@H]5O[C@H](CO)[C@H](O)[C@H](O)[C@H]5O)nn3)Cc3cc(OCCn5cc(CO[C@@H]6O[C@H](CO)[C@H](O)[C@H](O)[C@H]6O)nn5)c(cc3OCCn3cc(CO[C@@H]5O[C@H](CO)[C@H](O)[C@H](O)[C@H]5O)nn3)Cc3cc(OCCn5cc(CO[C@@H]6O[C@H](CO)[C@H](O)[C@H](O)[C@H]6O)nn5)c(cc3OCCn3cc(CO[C@@H]5O[C@H](CO)[C@H](O)[C@H](O)[C@H]5O)nn3)Cc3cc(OCCCn5cc(CO[C@@H]6O[C@H](CO)[C@H](O)[C@H](O)[C@H]6O)nn5)c(cc3OCCn3cc(CO[C@@H]5O[C@H](CO)[C@H](O)[C@H](O)[C@H]5O)nn3)C4)nn2)[C@H](O)[C@@H](O)[C@H]1O | -25.1 | 646 |  | -8.46 | -14.7 | >150 | -8.63 | 16.6 | 6.07 | 474 | inactive | > 150 | 
NC[C@H]1O[C@H](O[C@H]2[C@H](O)[C@@H](O[C@H]3O[C@H](CO)[C@@H](O)[C@H](N)[C@H]3O)[C@H](N)C[C@@H]2N)[C@H](N)C[C@@H]1O [TOBRAMYCIN] |  |  |  |  |  | 2 |  |  |  |  |  |  | 92
